The target in this test is T1, HA-S147A/S170A CaSR mutant (Rattus norvegicus, UniProt P48442, S147A/S170A).
T1 construct: mGluR5 signal peptide (N); expressed in transfected cells; host or cells: HEK293T
T1 sequence (P48442 20-1079 S147A/S170A): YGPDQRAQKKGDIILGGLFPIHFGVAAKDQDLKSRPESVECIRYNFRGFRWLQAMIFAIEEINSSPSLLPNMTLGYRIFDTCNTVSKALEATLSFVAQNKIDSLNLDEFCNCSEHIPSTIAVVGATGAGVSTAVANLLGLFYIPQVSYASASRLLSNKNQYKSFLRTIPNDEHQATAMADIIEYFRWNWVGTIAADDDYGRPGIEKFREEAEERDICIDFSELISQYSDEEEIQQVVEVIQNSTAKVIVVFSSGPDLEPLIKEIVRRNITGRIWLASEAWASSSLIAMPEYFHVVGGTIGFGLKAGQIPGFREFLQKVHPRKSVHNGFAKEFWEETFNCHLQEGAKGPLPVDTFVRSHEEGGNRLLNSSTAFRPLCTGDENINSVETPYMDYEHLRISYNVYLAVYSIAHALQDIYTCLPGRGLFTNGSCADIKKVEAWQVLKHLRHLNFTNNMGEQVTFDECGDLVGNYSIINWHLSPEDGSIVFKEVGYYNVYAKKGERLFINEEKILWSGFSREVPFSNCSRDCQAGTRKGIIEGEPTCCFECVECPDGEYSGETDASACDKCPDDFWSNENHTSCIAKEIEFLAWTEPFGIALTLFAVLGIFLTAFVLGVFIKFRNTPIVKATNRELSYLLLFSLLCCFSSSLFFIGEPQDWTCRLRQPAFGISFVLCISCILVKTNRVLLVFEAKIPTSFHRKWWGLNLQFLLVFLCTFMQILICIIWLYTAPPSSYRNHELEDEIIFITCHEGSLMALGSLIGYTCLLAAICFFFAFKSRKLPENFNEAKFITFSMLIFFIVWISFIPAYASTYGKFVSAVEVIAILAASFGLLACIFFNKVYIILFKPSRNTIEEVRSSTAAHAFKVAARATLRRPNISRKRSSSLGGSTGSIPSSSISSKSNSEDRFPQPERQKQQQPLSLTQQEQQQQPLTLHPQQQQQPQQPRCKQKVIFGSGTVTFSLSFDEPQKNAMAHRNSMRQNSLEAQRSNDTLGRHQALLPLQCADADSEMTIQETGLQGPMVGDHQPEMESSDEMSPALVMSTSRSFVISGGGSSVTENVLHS
As to the kind of experiment: IP-One assay, HEK293T transiently transfected. Format: cell-based.

`[Ca+2]` [Ca^2+]: where the note is “Ca^2+ alone”, the EC50 – broadly, the concentration giving half of the maximal effect – amounted to 9.04 mM; the “Hill coefficient ± S.E.M.” value was 3.00 ± 0.07; the “pEC50 ± S.E.M.” value stood at 2.04 ± 0.02. Moreover, the “Max ± S.E.M.” value (normalized to maximum response of WT CaSR) is reported as 130 ± 28%.
